Experimental data: a melting point compilation (Tetko et al.; mined from patent text by program, amines drawn as free bases though some values may be those of a salt)

**Q.** With `COc1ccc(COC(=O)[C@@H]2C[C@@H](O)CN2C(=O)OCc2ccc([N+](=O)[O-])cc2)cc1` as the molecule, how does the melting point read?
**A.** 83 to 85 °C

**Q.** Which melting point does the source give for `CCCc1cc(Br)c2oc(Cc3ccc(OC)cc3)c(C)c2c1O` here?
**A.** 110 to 112 °C

**Q.** For `Cc1ccc(Sc2cncc3sc(C(N)=O)cc23)cc1C`, which melting point is on record?
**A.** 192 to 194 °C

**Q.** For `Nc1ccc2cnc(Nc3ccc(F)cc3)nc2n1`, which melting point is on record?
**A.** 245 to 248 °C

**Q.** For `O=C1c2ccccc2C(=O)c2sc(-c3cccnc3)nc21`, which melting point is on record?
**A.** 256 °C

**Q.** With `CC(C)(C)C(NCCSC12CC3CC(CC(C3)C1)C2)C(=O)O` (stereo unspecified) as the molecule, how does the melting point read?
**A.** 220 to 230 °C

**Q.** With `CC(=NNC(=N)N)c1sc(-c2ccc(C3=CCCCC3)cc2)nc1C` as the molecule, how does the melting point read?
**A.** 213 to 215 °C

**Q.** For `OCCn1cc(Br)c(Br)n1`, which melting point is on record?
**A.** 64 to 66 °C

**Q.** Which melting point does the source give for `CS(=O)(=O)N1CCC(c2nc3cc(-c4ccc(-n5cnnn5)cc4F)ccc3o2)CC1` here?
**A.** 209 to 212 °C

**Q.** With `CCOC(=O)c1cn(C(C)F)c2cc(-n3cccc3)c(F)cc2c1=O` (stereo unspecified) as the molecule, how does the melting point read?
**A.** 231 to 234 °C

**Q.** Which melting point does the source give for `CC(C)C1=C(C#N)C(c2cccc(C#N)c2Br)c2c[nH]nc2N1` (stereo unspecified) here?
**A.** > 250 °C

**Q.** For `CCOC(=O)c1sc(SC)c2c1CCC(C=O)=C2Cl`, which melting point is on record?
**A.** 79 to 80 °C

**Q.** For `CC(=O)c1cc(Nc2ccn(-c3ccccc3)n2)ccc1O`, which melting point is on record?
**A.** 165 to 167 °C

**Q.** Which melting point does the source give for `OCC12COC(O1)C(O)C(O)C2O` (stereo unspecified) here?
**A.** 166 to 168 °C

**Q.** For `O=c1[nH]c2c(Cl)sc(Cl)c2c(=O)c2cscc12`, which melting point is on record?
**A.** 236 to 239 °C

**Q.** For `Cc1ccc(C(=O)Nc2nccc(-c3c(-c4cccc(C)c4)nc4cccnn34)n2)cc1`, which melting point is on record?
**A.** 211 to 212 °C

**Q.** For `COC(=O)c1cccc(CC2COc3ccc(OCc4nc5cc(F)ccc5s4)cc3C2O)c1` (stereo unspecified), which melting point is on record?
**A.** 171 to 173 °C

**Q.** For `COC(=O)C1=C(C)NC(C)=C(C(=O)OC/C=C/c2ccc(O)cc2)C1c1cccc([N+](=O)[O-])c1` (stereo unspecified), which melting point is on record?
**A.** 138 to 139 °C

**Q.** With `CN1C(=O)Cn2c(nnc2C(F)(F)F)-c2cc(Cl)ccc21` as the molecule, how does the melting point read?
**A.** 186 to 187 °C

**Q.** For `CC(C)C(C(=O)O)n1sc2ccccc2c1=O` (stereo unspecified), which melting point is on record?
**A.** 166 to 168 °C

**Q.** Which melting point does the source give for `O=C(O)CCCCCCC=C(c1ccccc1)c1ccccc1` here?
**A.** 77.5 to 78.5 °C

**Q.** For `CCN(CC)CCCNC(=O)Cn1ncc(-c2ccc([N+](=O)[O-])cc2)c1-c1ccccc1`, which melting point is on record?
**A.** 100 to 101 °C

**Q.** Which melting point does the source give for `C[Si](C)(C)C#Cc1ccc(C#N)cc1[N+](=O)[O-]` here?
**A.** 81 to 82 °C

**Q.** For `CN(C)c1n[nH]c(=O)n1N`, which melting point is on record?
**A.** 205 °C

**Q.** Which melting point does the source give for `Cc1ccc2c3c(ccc2n1)OCC(CNCC1CCc2[nH]c4cc(Cl)c(F)cc4c2C1)O3` (stereo unspecified) here?
**A.** 243 to 244 °C

**Q.** For `O=C(O)CCC(=O)OCc1ccccc1[N+](=O)[O-]`, which melting point is on record?
**A.** 63 to 65 °C

**Q.** For `COc1ccc2c(c1)C(=O)C(=Cc1ccncc1)CO2`, which melting point is on record?
**A.** 170 to 172 °C

**Q.** For `CC(C)Oc1ccc(CCCOc2cc(CCC(=O)O)n(C)n2)c(OCc2ccc(Cl)cc2Cl)c1`, which melting point is on record?
**A.** 125 to 127 °C

**Q.** With `COC(=O)C1(NC(=O)Cc2cc(C(C)=O)ccc2C)CCN(OC)CC1` as the molecule, how does the melting point read?
**A.** 138 to 139 °C

**Q.** For `COC(=O)CC(O)CC(O)C=Cc1c2c(nn1-c1ccc(F)cc1)C(Cc1ccc(-c3ccccc3)cc1)CCC2` (racemic), which melting point is on record?
**A.** 118 to 119 °C

**Q.** With `CCc1nn(C2CCCC2)c2cc(C(=O)NCC(=O)O)ccc12` as the molecule, how does the melting point read?
**A.** 182 to 184 °C

**Q.** Which melting point does the source give for `Cc1nn(CCO)c(C)c1Sc1cc(Cl)cc(Cl)c1` here?
**A.** 118 to 120 °C

**Q.** Which melting point does the source give for `CC(C)(NC(=O)CCS)C(=O)O` here?
**A.** 169 to 170 °C

**Q.** With `CCOC(=O)c1ccc(C(=O)/C=C/c2ccc(SC)cc2)cc1` as the molecule, how does the melting point read?
**A.** 115 to 116 °C

**Q.** For `CC(=O)c1ccc(OCc2ccccc2)c(CCCc2ccccc2)c1O`, which melting point is on record?
**A.** 115 to 116 °C

**Q.** With `Cn1c(=O)oc2cc3c(cc21)C1(CO3)C(=O)N(C(c2ccccc2)c2ccccc2)c2ccccc21` (stereo unspecified) as the molecule, how does the melting point read?
**A.** > 250 °C

**Q.** For `CS(=O)(=O)c1ccc(-c2cnn(CC(F)(F)F)c(=O)c2Oc2ccc(-c3ccccc3)cc2)cc1`, which melting point is on record?
**A.** 163 to 165 °C

**Q.** Which melting point does the source give for `Brc1nccc2ncccc12` here?
**A.** 112 to 113 °C

**Q.** With `O=CN(O)C(CO)CS(=O)(=O)c1ccc(-c2ccc(OC(F)(F)F)cc2)cc1` (stereo unspecified) as the molecule, how does the melting point read?
**A.** 167 to 168 °C

**Q.** For `C=CCOC(=O)c1ccc(N)cc1`, which melting point is on record?
**A.** 48 to 50 °C

**Q.** Which melting point does the source give for `CSc1ccc(-c2nc(=O)c3ccccc3s2)cn1` here?
**A.** 168 to 170 °C

**Q.** For `NC(=NCCCc1c[nH]cn1)N(CCN(Cc1ccc(Cl)cc1)c1ccccn1)C(=O)c1ccccc1`, which melting point is on record?
**A.** 166 to 167 °C

**Q.** Which melting point does the source give for `COC(=O)c1ccc2ccc(S(=O)(=O)N(Cc3ccccc3)Cc3ccccc3)cc2c1` here?
**A.** 141 to 142 °C

**Q.** For `COc1cc2nc(=O)n3[nH]cnc3c2cc1OC`, which melting point is on record?
**A.** 320 to 325 °C

**Q.** For `Cn1ncnc1COc1nc2c(-c3ccccc3F)nncn2c1-c1ccccc1`, which melting point is on record?
**A.** 195 °C

**Q.** For `O=C(O)CCCc1cc2nc(Cl)ccc2n1S(=O)(=O)c1cccc2nccnc12`, which melting point is on record?
**A.** 74 °C

**Q.** For `COc1ccc(-c2nc(N3CCCC3)c3c(C)c(C#N)sc3n2)cc1`, which melting point is on record?
**A.** 176 to 178 °C

**Q.** For `CN1CCN(C2CC3C4CCC5CC(O)C(N6CCC(=O)CC6)CC5(C)C4CCC3(C)C2O)CC1` (stereo unspecified), which melting point is on record?
**A.** 225 to 229 °C

**Q.** For `Cc1ccc(S(=O)(=O)Nc2cccc3ccc(Oc4ccc5nc(COc6ccc(CC7SC(=O)NC7=O)cc6)n(C)c5c4)cc23)cc1` (stereo unspecified), which melting point is on record?
**A.** 137 to 144 °C

**Q.** For `Cn1cc(-c2cc(-c3cccnc3)ccn2)n(-c2ccc(C(C)(C)C#N)cc2)c1=O`, which melting point is on record?
**A.** 180 °C

**Q.** For `ClCCn1c(-c2ccccc2)nc2cc(CN3CCN(C(c4ccccc4)c4ccccc4)CC3)ccc21`, which melting point is on record?
**A.** 174 to 180 °C
